“Also recorded” adds a separate entry of the source. Like-named read-outs stand apart in the source and are kept apart here. Blank lines part the entries; values can stand above or below the molecule they belong to.
Biological target: T1, Human leukocyte elastase (HLE) (Homo sapiens, UniProt P08246)
T1 construct: purchased Elastin Products, St. Louis, Mo
T1 sequence (P08246 30-267): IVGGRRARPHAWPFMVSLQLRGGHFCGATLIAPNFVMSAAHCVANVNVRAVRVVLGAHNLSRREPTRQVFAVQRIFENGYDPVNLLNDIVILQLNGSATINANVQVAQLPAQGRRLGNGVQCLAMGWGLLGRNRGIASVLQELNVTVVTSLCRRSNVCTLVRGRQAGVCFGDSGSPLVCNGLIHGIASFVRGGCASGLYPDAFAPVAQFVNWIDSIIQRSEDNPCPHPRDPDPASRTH
Test: Spectrophotometric assay of HLE inactivation (in vitro)
Type: biochemical
Experimental: The appropriate amount of inhibitor in acetonitrile was mixed with PPE in phosphate buffer solution and placed in a constant temperature bath. Aliquots were withdrawn at different time intervals and transferred to a cuvette containing 100 uL of substrate, 140 uL of acetonitrile, and 2 mL of phosphate buffer, pH 6.5. After incubating for 30 seconds, the absorbance change was monitored for two minutes at 347.5 nm. […] Controlled reactions for 100% PPE activity were run in the presence of acetonitrile. A similar procedure was followed for HLE.
The reaction of an irreversible inhibitor with PPE and HLE may be illustrated by the scheme shown below: [drawing 5] where EI is the noncovalently bound enzyme-inactivator complex and E-I is the final product with the inhibitor covalently bound to the enzyme. The kinetics data were analyzed according to known procedures. The apparent pseudo-first-order inactivation rate constants were determined from the slopes of semilogarithmic plots of enzymatic activity remaining versus time using the following equation: [formula] where Et /EO is the amount of active enzyme remaining after time "t".
The assay procedure used was the procedure identified relative to the tests above in Table I.
(kobsd) were determined by plotting in [E]t /[E]o vs time.

[1] = Table V, succinimide derivatives, read-out: kobsd /[I], inhibition of leukocyte elastase
[2] = Table III, inactive: no inhibition at 243fold excess of inhibitor over enzyme, 10min incubation, read-out: kobsd /[I], inhibition of leukocyte elastase
[3] = Table VI, sulfur-containing amino acid esters
[4] = Table III, inactive: no inhibition at 243fold excess of inhibitor over enzyme, 10min incubation
[5] = Table IV, derivatives of phenylalanine, read-out: kobsd /[I], inhibition of leukocyte elastase
[6] = Table VI, sulfur-containing amino acid esters, read-out: kobsd /[I], inhibition of HLE
[7] = Table II monopotassium sulfonate salts
[8] = Table V, succinimide derivatives
[9] = Table II monopotassium sulfonate salts, read-out: k2 /Ki (HLE)

SMILES: O=C1CC(Cc2ccccc2)C(=O)N1OS(=O)(=O)c1ccc(Br)cc1 (centres unmarked)
- kinact/KI [1]: 1650 M⁻¹ s⁻¹

SMILES: COC(=O)[C@H](CSCc1ccccc1)NC(=O)S(=O)(=O)O [Compound 6, Table VI]
- kobsd /[I], inhibition of HLE [3]: inactive

SMILES: O=C(NCc1cccc(F)c1)n1ccnc1 [Compound 14]
- kobsd /[I], inhibition of leukocyte elastase [4]: inactive

SMILES: COC(=O)[C@H](CSC)NC(=O)n1ccnc1 [Compound 9, Table VI]
- kinact/KI [6]: 4050 M⁻¹ s⁻¹

SMILES: CCCCCCCCS(=O)(=O)ON1C(=O)CC(Cc2ccccc2)C1=O (centres unmarked) [BENZYL, OSO2(CH2)7 CH3]
- kinact/KI [1]: 1270 M⁻¹ s⁻¹

SMILES: O=C(Nc1ccc(C(F)(F)F)cc1)S(=O)(=O)O [Compound 7, Table III]
- kobsd /[I], inhibition of leukocyte elastase [4]: inactive

SMILES: COC(=O)[C@H](C)NC(=O)S(=O)(=O)O [Compound 2, Table II]
- Inhibition of HLE (in words): devoid of any inhibitory activity
- k2 /Ki (HLE) [7]: inactive

SMILES: COC(=O)[C@H](CSC)NC(=O)S(=O)(=O)O [Compound 5, Table VI]
- kinact/KI [6]: 1510 M⁻¹ s⁻¹

SMILES: CC[S+]([O-])C[C@H](NC(=O)S(=O)(=O)O)C(=O)OC (some centres unmarked) [Compound 4, Table VI]
- Inhibition of HLE (in words): inactive
- kobsd /[I], inhibition of HLE [3]: inactive

SMILES: COC(=O)CNC(=O)S(=O)(=O)O [Compound 1, Table II]
- Inhibition of HLE (in words): devoid of any inhibitory activity
- k2 /Ki (HLE) [7]: inactive

SMILES: O=C(Nc1cccc(F)c1)n1ccnc1 [Compound 8, Table III]
- kobsd /[I], inhibition of leukocyte elastase [4]: inactive

SMILES: COC(=O)CSC[C@H](NC(=O)S(=O)(=O)O)C(=O)OC [Compound 8, Table VI]
- kinact/KI [6]: 17 M⁻¹ s⁻¹

SMILES: O=C(Nc1cccc(F)c1)S(=O)(=O)O [Compound 4, Table III]
- kobsd /[I], inhibition of leukocyte elastase [4]: inactive

SMILES: O=C(Nc1ccccc1)S(=O)(=O)O [Compound 1, Table III]
- kobsd /[I], inhibition of leukocyte elastase [4]: inactive

SMILES: O=C(NCc1ccc(C(F)(F)F)cc1)n1ccnc1 [Compound 11, Table III]
- kobsd /[I], inhibition of leukocyte elastase [4]: inactive

SMILES: CCSC[C@H](NC(=O)n1ccnc1)C(=O)OC [Compound 10, Table VI]
- kinact/KI [6]: 4230 M⁻¹ s⁻¹

SMILES: O=C(NCc1cccc(C(F)(F)F)c1)S(=O)(=O)O [Compound 13, Table III]
- kobsd /[I], inhibition of leukocyte elastase [4]: inactive

SMILES: O=C(Nc1ccccc1C(F)(F)F)n1ccnc1 [Compound 9, Table III]
- kobsd /[I], inhibition of leukocyte elastase [4]: inactive

SMILES: CCCC[C@H](NC(=O)S(=O)(=O)O)C(=O)OC [Compound 6, Table II]
- kinact/KI [9]: 920 M⁻¹ s⁻¹
- Inhibition of HLE (in words) (listed as L-norleucine sulfonate salt): very potent inhibitors; also recorded: effective inhibitors

SMILES: Cc1ccc(S(=O)(=O)ON2C(=O)CC(Cc3ccccc3)C2=O)cc1 (centres unmarked)
- kinact/KI [1]: 1610 M⁻¹ s⁻¹

SMILES: Cc1ccc(S(=O)(=O)ON2C(=O)CCC2=O)cc1
- kobsd /[I], inhibition of leukocyte elastase [8]: inactive

SMILES: COC(=O)CSC[C@H](NC(=O)n1ccnc1)C(=O)OC [Compound 11, Table VI]
- kinact/KI [6]: 15 M⁻¹ s⁻¹

SMILES: O=C(Nc1cccc(C(F)(F)F)c1)S(=O)(=O)O [Compound 6, Table III]
- kobsd /[I], inhibition of leukocyte elastase [4]: inactive

SMILES: CN(C)S(=O)(=O)ON1C(=O)CC(Cc2ccccc2)C1=O (centres unmarked) [BENZYL, OSO2N(CH3)2]
- kinact/KI [1]: 323 M⁻¹ s⁻¹

SMILES: CCCCS(=O)(=O)ON1C(=O)CC(Cc2ccccc2)C1=O (centres unmarked) [BENZYL, OSO2(CH2)3 CH3]
- kinact/KI [1]: 1680 M⁻¹ s⁻¹

SMILES: COC(=O)[C@H](CSSC[C@H](NC(=O)S(=O)(=O)O)C(=O)OC)NC(=O)S(=O)(=O)O [Compound 7, Table VI]
- kobsd /[I], inhibition of HLE [3]: inactive

SMILES: O=C(Nc1cccc(Cl)c1)S(=O)(=O)O [Compound 2, Table III]
- kobsd /[I], inhibition of leukocyte elastase [4]: inactive

SMILES: O=C(Nc1cccc(C(F)(F)F)c1)n1ccnc1 [Compound 10, Table III]
- kobsd /[I], inhibition of leukocyte elastase [4]: inactive

SMILES: COC(=O)[C@H](Cc1ccccc1)NC(=O)S(=O)(=O)O [Compound 27]
- kinact/KI [5]: 550 M⁻¹ s⁻¹

SMILES: O=C1CC(Cc2ccccc2)C(=O)N1OS(=O)(=O)c1ccccc1 (centres unmarked)
- kinact/KI [1]: 1170 M⁻¹ s⁻¹

SMILES: COC(=O)[C@H](CCSC)NC(=O)S(=O)(=O)O [Compound 8, Table II]
- kinact/KI [9]: 260 M⁻¹ s⁻¹
- Inhibition of HLE (in words) (listed as L-methionine sulfonate salt): also deactivate HLE but were not as effective; also recorded: also inactivate HLE, but not as efficiently; also recorded: effective inhibitors

SMILES: COC(=O)[C@H](CC[S+](C)[O-])NC(=O)S(=O)(=O)O (some centres unmarked) [Compound 2, Table VI]
- Inhibition of HLE (in words): inactive
- kobsd /[I], inhibition of HLE [3]: inactive

SMILES: COC(=O)[C@H](Cc1ccccc1)NC(=O)S(=O)(=O)[O-].[K+] [Compound 9, Table II, N-(Sulfocarbonyl)-L-phenylalanine Methyl Ester, Monopotassium Salt]
- kinact/KI [9]: 530 M⁻¹ s⁻¹
- Inhibition of HLE (in words) (listed as L-phenylalanine sulfonate salt, Monopotassium Salt): also deactivate HLE but were not as effective; also recorded: also inactivate HLE, but not as efficiently; also recorded: effective inhibitors

SMILES: O=C(Nc1ccc(Cl)cc1)S(=O)(=O)O [Compound 3, Table III]
- kobsd /[I], inhibition of leukocyte elastase [4]: inactive

SMILES: COC(=O)[C@@H](NC(=O)S(=O)(=O)O)C(C)C [Compound 3, Table II]
- kinact/KI [9]: 800 M⁻¹ s⁻¹
- Inhibition of HLE (in words) (listed as L-valine sulfonate salt): very potent inhibitors; also recorded: effective inhibitors

SMILES: O=C(Nc1ccccc1C(F)(F)F)S(=O)(=O)O [Compound 5, Table III]
- kobsd /[I], inhibition of leukocyte elastase [4]: inactive

SMILES: COC(=O)[C@H](CC(C)C)NC(=O)S(=O)(=O)O [Compound 7, Table II]
- kinact/KI [9]: 260 M⁻¹ s⁻¹
- Inhibition of HLE (in words) (listed as L-leucine sulfonate salt): also deactivate HLE but were not as effective; also recorded: also inactivate HLE, but not as efficiently; also recorded: effective inhibitors

The remaining lines, values ahead:

- kinact/KI [2]: 11700 M⁻¹ s⁻¹
SMILES: O=C(NCCc1cccc(C(F)(F)F)c1)n1ccccc1=O [Compound 23]

- kinact/KI [5]: 13 M⁻¹ s⁻¹
SMILES: COC(=O)C(Cc1cccc(C(F)(F)F)c1)NC(=O)S(=O)(=O)O (centres unmarked) [Compound 32]

- kinact/KI [2]: 317 M⁻¹ s⁻¹
SMILES: O=C(NCCc1cccc(F)c1)n1ccccc1=O [Compound 22]

- kinact/KI [2]: 4 M⁻¹ s⁻¹
SMILES: O=C(NCCc1ccccc1)S(=O)(=O)O [Compound 16]

- kinact/KI [5]: 6640 M⁻¹ s⁻¹
SMILES: COC(=O)[C@H](Cc1ccccc1)NC(=O)ON1C(=O)CCC1=O [Compound 30]

- kinact/KI [2]: 823 M⁻¹ s⁻¹
SMILES: O=C(NCCc1cccc(F)c1)ON1C(=O)CCC1=O [Compound 25]

- kinact/KI [2]: 18 M⁻¹ s⁻¹
SMILES: O=C(NCCc1cccc(F)c1)S(=O)(=O)O [Compound 17, Table III]

- kobsd /[I], inhibition of leukocyte elastase [8]: inactive
SMILES: CS(=O)(=O)ON1C(=O)CCC1=O [H, OSO2CH3]

- kobsd /[I], inhibition of leukocyte elastase [4]: inactive
SMILES: O=C(NCc1cccc(C(F)(F)F)c1)n1ccnc1 [Compound 15]

- kinact/KI [5]: 318 M⁻¹ s⁻¹
SMILES: COC(=O)C(Cc1cccc(F)c1)NC(=O)n1ccnc1 (centres unmarked) [Compound 33]

- kinact/KI [5]: 1100 M⁻¹ s⁻¹
SMILES: COC(=O)C(Cc1cccc(C(F)(F)F)c1)NC(=O)n1ccnc1 (centres unmarked) [Compound 34]

- kinact/KI [5]: 2070 M⁻¹ s⁻¹
SMILES: COC(=O)[C@H](Cc1ccccc1)NC(=O)n1ccnc1 [Compound 28]

- kinact/KI [2]: 38 M⁻¹ s⁻¹
SMILES: O=C(NCCc1cccc(F)c1)n1ccnc1 [Compound 19]

- kinact/KI [2]: 500 M⁻¹ s⁻¹
SMILES: O=C(NCCc1ccccc1)n1ccccc1=O [Compound 21]

- kinact/KI [5]: 57 M⁻¹ s⁻¹
SMILES: COC(=O)C(Cc1cccc(F)c1)NC(=O)S(=O)(=O)O (centres unmarked) [Compound 31]

- kinact/KI [5]: 2330 M⁻¹ s⁻¹
SMILES: COC(=O)[C@H](Cc1ccccc1)NC(=O)n1ccccc1=O [Compound 29]

- kinact/KI [2]: 927 M⁻¹ s⁻¹
SMILES: O=C(NCCc1ccccc1)ON1C(=O)CCC1=O [Compound 24]

- kinact/KI [2]: 13500 M⁻¹ s⁻¹
SMILES: O=C(NCCc1cccc(C(F)(F)F)c1)ON1C(=O)CCC1=O [Compound 26]

- kinact/KI [2]: 35 M⁻¹ s⁻¹
SMILES: O=C(NCCc1ccccc1)n1ccnc1 [Compound 18]
